Data from patent US12636260B2, “Application of α-asarone in preparation of medicine for preventing or treating hemorrhagic stroke” (CHENGDU XINRUI TAIKANG TECHNOLOGY CO., LTD., priority 2021, dated 2026).

Tests used:
[1] = system: ICH rats; assay: Brain water content and blood-brain barrier permeability (Evans blue), ICH rats; assay type: in vivo, rat; settings: 24 hours after operation, group M, medium-dose intravenous, vs model group
Protocol: After completing the evaluation of 24-hour short-term neurological function, 4% Evans blue solution (2.5 mL/kg) was injected into the right caudal vein of the rats. After circulated for 1 hour, the rats were deeply anesthetized and transcardinally perfused with 100 mL of normal saline to collect the rats' brain. The whole brain was divided into four groups: left hemisphere (LH), right hemisphere (RH), cerebellum (Cb) and brainstem (BS). The left and right hemispheres were coronally divided into two parts, one part was immediately weighed (wet weight) with a balance with an accuracy of 0.1 mg, dried in an oven at 105° C. for 24 hours and weighed again (dry weight). The brain water content was calculated as [(wet weight−dry weight)/wet weight]×100%. The other part of the brain tissue was weighed (wet weight) and emerged into 10 times the volume of pure formamide, incubated at 60° C. for 48 hours, centrifuged at 25° C. for 30 min (10,000 rpm/min). The Evans blue in the supernatant was measured at 622 nm by a UV spectrophotometry, and calculated with a standard curve for quantification. The amount of Evans blue was expressed as μg/g of brain tissue (wet weight).

[2] = system: SAH rats; assay: Secondary epilepsy in SAH rats (Racine score, seizures); assay type: in vivo, rat; settings: within 24 hours after SAH
Protocol: The experimental materials, grouping, modeling method and administration protocol were the same as those in the effect embodiment 1, and the seizures of rats in each group were observed within 24 hours after SAH.

[3] = system: mouse bone marrow cells; assay: Mouse bone marrow micronucleus test by flow cytometry; assay type: in vivo; settings: mice; for MNPCE / PCE / fMNPCE (‰): 4 days
Protocol: Experimental grouping and administration: The animals were randomly divided into five groups with 10 […] in each group: blank control group (blank group, administrated blank emulsion with the same volume as the high-dose group of α-asarone), cyclophosphamide group (CTX group, 40 mg/kg), low dose of α-asarone emulsion injection group (prepared by preparation embodiment 7, 100 mg/kg/day, ASA-L group), medium dose of α-asarone emulsion injection group (prepared by preparation embodiment 7, 150 mg/kg/day, ASA-M group), and high dose of α-asarone emulsion injection group (prepared from preparation embodiment 7, 200 mg/kg/day, ASA-H group).
All drugs were administrated through the tail vein for continuous 4 days except for the single injection of the positive control drug cyclophosphamide (CTX) 24 hours before sampling. After 24 hours of the last administration, the mice were sacrificed to separate both femurs. The femoral bone marrow cells were washed with PBS and filtered by 300 mesh nylon cell sieves to prepare a single-cell suspension. The suspension was centrifuged at 1650 rpm for 5 min, and the cell concentration was adjusted to 5×10^6 cells/mL by PBS resuspension. For each sample, 100 μL of the cell suspension was incubated with 400 μL of the PIPES-PI solution (10 mL of PIPES solution (concentration of 3.5 mg/mL)+0.5 mg PI+0.01 mL Triton X-100 (concentration of 0.1%)), gently blown and mixed, at 4° C. in the dark for 30 min and detected by a flow cytometry. […] The higher the value, the stronger the genotoxicity.

[4] = system: SAH rats; assay: Short-term neurological function of SAH rats (Garcia score, beam balance test, bleeding score); assay type: in vivo, rat; settings: SAH model, 24 hours after modeling; group O, α-asarone emulsion oral administration 40 mg/kg
[5] = system: ICH rats; assay: Glutamate and GABA content in brain tissue, ICH rats; assay type: in vivo, rat; settings: 12 to 24 hours after operation, group M
Protocol: The rats were deeply anesthetized, and decapitated to collect the brain at 12-24 hours after modeling. Then about 60 to 120 mg of brain cortex on the hemorrhagic side were weighed, homogenized with 10 times the volume of ice-cold centrifuge buffer for biochemical detection, homogenized for 10 min in an ice bath, and centrifuged at 4° C. for 30 minutes (14,000 rpm/min). The contents of glutamate and GABA in the supernatant were detected according to the instructions of glutamate content detection kit and rat GABA Elisa kit.

[6] = group H, α-asarone emulsion injection 30 mg/kg tail vein
[7] = group L, α-asarone emulsion injection 7.5 mg/kg tail vein
[8] = group M, α-asarone emulsion injection 15 mg/kg tail vein
[9] = group O, α-asarone emulsion oral administration 40 mg/kg
[10] = ASA-H group, α-asarone emulsion injection 200 mg/kg/day tail vein
[11] = ASA-L group, α-asarone emulsion injection 100 mg/kg/day tail vein
[12] = ASA-M group, α-asarone emulsion injection 150 mg/kg/day tail vein

C/C=C/c1cc(OC)c(OC)cc1OC [α-asarone, trans-2,4,5-trimethoxy-1-propenylbenzene]
Evans blue content [1]: significantly reduce
brain water content [1]: significantly reduce
incidence of secondary epilepsy [2]: significantly reduce
Clonic seizures (%) [2, 6]: 8.0%
Racine score [2, 6]: 0.73 ± 1.44
Tonic seizures (%) [2, 6]: 6.7%
Clonic seizures (%) [2, 7]: 6.7%
Racine score [2, 7]: 0.53 ± 1.46
Tonic seizures (%) [2, 7]: 6.7%
Clonic seizures (%) [2, 8]: 5.6%
Racine score [2, 8]: 0.44 ± 1.34
Tonic seizures (%) [2, 8]: 5.6%
Clonic seizures (%) [2, 9]: 15.4%
Racine score [2, 9]: 0.77 ± 1.59
Tonic seizures (%) [2, 9]: 7.7%
MNPCE [3, 10]: 0.55 ± 0.43
PCE [3, 10]: 41.39 ± 6.11
fMNPCE (‰) [3, 10]: 12.60 ± 8.53 ‰
MNPCE [3, 11]: 0.39 ± 0.11
PCE [3, 11]: 40.58 ± 9.17
fMNPCE (‰) [3, 11]: 10.10 ± 2.75 ‰
MNPCE [3, 12]: 0.47 ± 0.19
PCE [3, 12]: 38.37 ± 3.18
fMNPCE (‰) [3, 12]: 12.34 ± 5.52 ‰
micronucleus rate compared to the blank emulsion group ([3]; different doses of α-asarone emulsion injection (100, 150, 200 mg/kg/day)): no significant difference
changes in the micronucleus rate of mouse bone marrow cells ([3]; intravenous dose of up to 200 mg/kg α-asarone emulsion injection): no significant changes
Beam balance score [4]: 3.30
Garcia score [4]: 10.94
GABA content in the hemorrhagic brain tissue [5]: significantly reduce
glutamate content in the hemorrhagic brain tissue [5]: significantly reduce
